Results on 2 compounds are retold here after US8236849B2, “Model for glutamate racemase inhibitors and glutamate racemase antibacterial agents” (Ohio Northern University, priority 2008, dated 2012).

In the experiment the test system is S. pneumoniae R6 strain. The experiment in a line: Whole-cell assay on blood agar plates, inhibition zones. The class given is cell-based. To be noted: 0.5, 0.75 and 1.0 μg/mL, data not shown. How it is done: Whole-cell Assays: Selected compounds were assayed against S. pneumoniae on blood agar plates as shown on FIG. 3.

Take `Cc1ccc(C(=O)CC(NCCc2c[nH]c3ccccc23)C(=O)O)cc1` (centres unmarked) [Compound A, 2-(2-(1H-indol-3-yl)ethylamino)-4-oxo-4-p-tolylbutanoic acid]: the “antibacterial activity (inhibition zones compared to DMSO)” value is “weaker antibacterial activity than Compound B”.

Regarding `O=C(CC(NCCc1c[nH]c2ccccc12)C(=O)O)c1ccc(F)cc1` (centres unmarked) [Compound B, 2-(2-(1H-indol-3-yl)ethylamino)-4-(4-fluorophenyl)-4-oxobutanoic acid], the “antibacterial activity (inhibition zones compared to DMSO)” value is reported as “significant antibacterial activity”.
